Test results published in patent US20110190324A1, “METHODS OF TREATING ATHEROSCLEROSIS” (priority 2008, published 2011).
“Also recorded” adds a separate entry of the source.

Assays:
Type in all cases: cell-based, human
VEGF = VEGF secretion by U937 derived foam cells, ELISA; conditions: 24 h, hypoxia, adenosine 100 μM, antagonist 100 nM
Description: (§1) U937 cells were induced to differentiate into macrophages by treatment with phorbol myristate acetate (PMA, 40 nM) for 72 h. Before use oxLDL was dialyzed against 1 L of 0.15 M sodium chloride and 0.3 mM EDTA (pH 7.4) for 12 h at 4° C., then against RPMI 1640 medium (two changes, 1 L/each change) for 24 h. All dialyses were carried out with Pierce Slide-A-Lyzer cassettes (10,000 molecular wheight cut-off). After dialysis, lipoproteins were sterilized by passing them through a 0.45 μm (pore-size) filter, then added (50-100 μg/mL, Intracel, Frederick, Md.) to PMA-treated U937 cells and incubated in serum-free RPMI 1640 for 48 h.
(§2) The levels of VEGF and IL-8 protein secreted by the cells in the medium were determined by VEGF and IL-8 ELISA kits (R&D Systems) according to the manufacturer's instructions. The data were presented as mean±SD from three independent experiments.

HIF-1α protein = HIF-1α protein accumulation, western blot; conditions: foam cells; for Antagonism of adenosine induced HIF-1α protein accumulation: hypoxia, adenosine 100 μM, antagonist 100 nM
Description: Hypoxic exposures were done in a modular incubator chamber and flushed with a gas mixture containing 1% O2, 5% CO2 and balance N2 (MiniGalaxy, RSBiotech, Irvine, Scotland).
U937 cells were induced to differentiate into macrophages by treatment with phorbol myristate acetate (PMA, 40 nM) for 72 h. […] All dialyses were carried out with Pierce Slide-A-Lyzer cassettes (10,000 molecular wheight cut-off).
Whole cell lysates were prepared as described previously (27). […] In experiments aimed to detect HIF, western blot analyses were performed using antibody against HIF-1a (1:250 dilution) and HIF-1β (1:1000 dilution) in 5% non-fat dry milk in PBS/0.1% Tween-20 overnight at 4° C. The protein concentration was determined using BCA protein assay kit (Pierce, Rockford, Ill.). Tubulin (1:250) was used to ensure equal protein loading. Immunoreactivity was assessed and quantified by using a VersaDoc Imaging System (Bio-Rad).

[1] = test system: foam cell formation from PMA-treated U937 cells; test: Oil red O staining, foam cell formation; conditions: oxLDL 50 μg/mL; for Effect on oxLDL and adenosine induced foam cells formation: adenosine 100 μM
Description: as §1
Treatment of PMA-differentiated U937 cells with test agents was performed 2 h before addition of oxLDL. After exposition to oxLDL under hypoxia for 24 h, U937 cells were fixed in phosphate buffered saline-buffered 4% paraformaldehyde solution for 15 min and then air dried. Oil red O (in 60% isopropanol) staining was done for 15 min essentially as described previously by Kalayoglu and Byrne (Infect. Immun., 66: 5067-5072, 1998). Cells were viewed under a bright-field microscope in 100× fields using a Nikon's Eclipse E800 microscope. Foam cells were defined as macrophages in which cytoplasm was filled with Oil red O-stainable lipid droplets.

IL-8 = IL-8 secretion by U937 derived foam cells, ELISA
Description: as §1, §2

SMILES | Reduction of adenosine induced VEGF increase (VEGF) | Antagonism of adenosine induced HIF-1α protein accumulation (HIF-1α protein) | Effect on oxLDL and adenosine induced foam cells formation ([1]; antagonist 100 nM) | other results
Nc1nc2c(cnn2CCc2ccccc2)c2nc(-c3ccco3)nn12 [SCH 58261] | inhibited to lesser extent | partially antagonized | – | –
CCNC(=O)[C@H]1O[C@@H](n2cnc3c(Nc4ccc(OCC(=O)Nc5ccccc5)cc4)ncnc32)[C@H](O)[C@@H]1O [1-deoxy-1-[6-{4-[(phenylcarbamoyl)-methoxy]phenylamino}-9H-purin-9-yl]-N-ethyl-β-D-ribofuranuronamide] | – | – | – | Induction of HIF-1α protein by adenosine receptor agonists (HIF-1α protein; CHA 10, 100 nM, CGS 21680 500, 1000 nM, A2B agonist 10, 100 nM, CI-IB-MECA 10, 100 nM): able to induce HIF-1α protein
COc1ccccc1NC(=O)Nc1nc(-c2cccnc2)nc2ccccc12 [VUF 5574] | – | – | – | Effect on oxLDL and adenosine induced foam cells formation ([1]; antagonist 10 nM): blocked the foam cells formation; also recorded: inhibition of foam cell formation
Nc1ncnc2c1ncn2[C@@H]1O[C@H](CO)[C@@H](O)[C@H]1O [adenosine] | – | – | – | Foam cells (Oil red O) on top of oxLDL ([1]; 24 h, 100 μM): increased
CCCn1cc2c(nc(NC(=O)Nc3ccc(OC)cc3)n3nc(-c4ccco4)nc23)n1 [MRE-3008F20, 5-[[(4-methoxyphenyl)amino]carbonyl]amino-8-propyl-2-(2-furyl)-pyrazolo[4,3-e]-1,2,4-triazolo[1,5-c]pyrimidine] | strongly reduced | partially antagonized | inhibition of foam cell formation; also recorded: blocked the foam cells formation | –
CCCn1c(=O)c2[nH]c(-c3cc(OCC(=O)Nc4ccc5c(c4)OCO5)nn3C)nc2n(CCC)c1=O [MRE-2029F20, N-benzo[1,3]dioxol-5-yl-2-[5-(1,3-dipropyl-2,6-dioxo-2,3,6,7-tetrahydro-1H-purin-8-yl)-1-methyl-1H-pyrazol-3-yl-oxy]-acetamide] | strongly reduced | partially antagonized | blocked the foam cells formation; also recorded: inhibition of foam cell formation | Block of the effect of the adenosine A2B receptor agonist (1 μM) on IL-8 secretion (IL-8): completely blocked; Block of adenosine induced IL-8 increase (IL-8; hypoxia, adenosine 100 μM, antagonist 100 nM): blocked
